Data reported in patent publication US20200347033A1, “MODULATORS OF THE INTEGRATED STRESS PATHWAY” (Calico Life Sciences LLC, priority 2017, published 2020).
pEC50: −log10 of the molar value.

Tests used:
[1] = tested on: HEK293T cells carrying the ATF4 luciferase reporter; experiment: ATF4-Luc assay (in vitro model of vanishing white matter disease); type: cell-based, human; settings: Homo sapiens, HEK-293T; HEK293T cells with ATF4 5'-UTR firefly luciferase reporter; 1 μg/mL tunicamycin; 7 hours; One Glo luminescence
Protocol: In order to test exemplary compounds of the invention in a cellular context, a stable VWMD cell line was first constructed. The ATF4 reporter was prepared by fusing the human full-length ATF4 5′-UTR (NCBI Accession No. BC022088.2) in front of the firefly luciferase (FLuc) coding sequence lacking the initiator methionine as described in Sidrauski et al (eLife 2013). The construct was used to produce recombinant retroviruses using standard methods and the resulting viral supernatant was used to transduce HEK293T cells, which were then subsequently selected with puromycin to generate a stable cell line.
HEK293T cells carrying the ATF4 luciferase reporter were plated on polylysine coated 384-well plates (Greiner Bio-one) at 30,000 cells per well. Cells were treated the next day with 1 μg/mL tunicamycin and 200 nM of a compound of Formula (I) for 7 hours. Luminescence was measured using One Glo (Promega) as specified by the manufacturer. Cells were maintained in DMEM with L-glutamine supplemented with 10% heat-inactivated FBS (Gibco) and Antibiotic-Antimycotic solution (Gibco).
Table 2 below summarizes the EC50 data obtained using the ATF4-Luc assay for exemplary compounds of the invention.

melting point [°C] | Compound | pEC50 [1]
232 | O=C(COc1ccc(Cl)c(F)c1)N[C@H]1CC[C@H](N2CCN(c3ccc(C(F)(F)F)cn3)C2=O)CC1 [Compound 132, 2-(4-chloro-3-fluorophenoxy)-N-[(1r,4r)-4-{2-oxo-3-[5-(trifluoromethyl)pyridin-2-yl]imidazolidin-1-yl}cyclohexyl]acetamide] | > 7.30
 | O=C(COc1ccc(Cl)c(F)c1)N[C@H]1CC[C@H](N2CCN(c3ccc(OC(F)(F)F)nc3)C2=O)CC1 [Compound 136, 2-(4-chloro-3-fluorophenoxy)-N-[(1r,4r)-4-{2-oxo-3-[6-(trifluoromethoxy)pyridin-3-yl]imidazolidin-1-yl}cyclohexyl]acetamide] | < 5.70
 | O=C(COc1ccc(Cl)c(F)c1)NC12CC(N3CNc4cc(F)c(F)cc4C3=O)(C1)C2 [Compound 137, 2-(4-chloro-3-fluorophenoxy)-N-[3-(6,7-difluoro-4-oxo-1,4-dihydroquinazolin-3(2H)-yl)bicyclo[1.1.1]pentan-1-yl]acetamide] | 6.00 to 6.60
 | O=C(COc1ccc(Cl)c(F)c1)NC12CC(n3c(=O)c4ccc(Cl)cc4n(CCO)c3=O)(C1)C2 [Compound 138, 2-(4-chloro-3-fluorophenoxy)-N-{3-[7-chloro-1-(2-hydroxyethyl)-2,4-dioxo-1,4-dihydroquinazolin-3(2H)-yl]bicyclo[1.1.1]pentan-1-yl}acetamide] | 6.60 to 7.30
 | O=c1[nH]c2cc(Cl)ccc2c(=O)n1C12CC(NCCOc3ccc(Cl)c(F)c3)(C1)C2 [Compound 139, 7-chloro-3-(3-{[2-(4-chloro-3-fluorophenoxy)ethyl]amino}bicyclo[1.1.1]pentan-1-yl)quinazoline-2,4(1H,3H)-dione] | < 5.70
 | O=C(COc1ccc(Cl)c(F)c1)NC12CC(n3c(=O)[nH]c4cc(Cl)ccc4c3=O)(C1)C2 [Compound 140, N-[3-(7-chloro-2,4-dioxo-1,4-dihydroquinazolin-3(2H)-yl)bicyclo[1.1.1]pentan-1-yl]-2-(4-chloro-3-fluorophenoxy)acetamide] | 6.00 to 6.60
 | O=C(COc1ccc(Cl)c(F)c1)N[C@H]1CC[C@H](N2CCN(c3ccc(OC(F)(F)F)cn3)C2=O)CC1 [Compound 141, 2-(4-chloro-3-fluorophenoxy)-N-[(1r,4r)-4-{2-oxo-3-[5-(trifluoromethoxy)pyridin-2-yl]imidazolidin-1-yl}cyclohexyl]acetamide] | 6.60 to 7.30
 | O=C(COc1ccc(Cl)c(F)c1)N[C@H]1CC[C@H](N2CCN(c3ccc(C(F)F)nc3)C2=O)CC1 [Compound 142, 2-(4-chloro-3-fluorophenoxy)-N-[(1r,4r)-4-{3-[6-(difluoromethyl)pyridin-3-yl]-2-oxoimidazolidin-1-yl}cyclohexyl]acetamide] | > 7.30
 | O=C(COc1ccc(Cl)c(F)c1)N[C@H]1CC[C@H](N2CCN(c3ccc(C(F)(F)F)nc3)C2=O)CC1 [Compound 143, 2-(4-chloro-3-fluorophenoxy)-N-[(1r,4r)-4-{2-oxo-3-[6-(trifluoromethyl)pyridin-3-yl]imidazolidin-1-yl}cyclohexyl]acetamide] | > 7.30
 | O=C(COc1ccc(Cl)c(F)c1)N[C@H]1CC[C@H](N2CCN(c3ccc(Cl)cc3)C2=O)CC1 [Compound 144, 2-(4-chloro-3-fluorophenoxy)-N-{(1r,4r)-4-[3-(4-chlorophenyl)-2-oxoimidazolidin-1-yl]cyclohexyl}acetamide] | > 7.30
 | O=C(COc1ccc(Cl)c(F)c1)NC12CC(N3CCN(c4ccc(Cl)cn4)C3=O)(C1)C2 [Compound 145, 2-(4-chloro-3-fluorophenoxy)-N-{3-[3-(5-chloropyridin-2-yl)-2-oxoimidazolidin-1-yl]bicyclo[1.1.1]pentan-1-yl}acetamide] | > 7.30
 | O=C(COc1ccc(Cl)c(F)c1)NC12CCC(N3CCN(c4ccc(Cl)c(F)c4)C3=O)(CC1)CC2O (stereo not shown) [Compound 146, 2-(4-chloro-3-fluorophenoxy)-N-{4-[3-(4-chloro-3-fluorophenyl)-2-oxoimidazolidin-1-yl]-2-hydroxybicyclo[2.2.2]octan-1-yl}acetamide] | > 7.30
 | O=C(COc1ccc(Cl)c(F)c1)NC12CC(N3CCN(c4ccc(C(F)F)cn4)C3=O)(C1)C2 [Compound 147, 2-(4-chloro-3-fluorophenoxy)-N-(3-{3-[5-(difluoromethyl)pyridin-2-yl]-2-oxoimidazolidin-1-yl}bicyclo[1.1.1]pentan-1-yl)acetamide] | > 7.30
 | O=C(COc1ccc(Cl)c(F)c1)NC12CC(N3C(=O)OC(c4ccc(F)cc4)C3=O)(C1)C2 (stereo not shown) [Compound 158, 2-(4-chloro-3-fluorophenoxy)-N-{3-[5-(4-fluorophenyl)-2,4-dioxo-,3-oxazolidin-3-yl]bicyclo[1.1.1]pentan-1-yl}acetamide] | 5.70 to 6.00
 | O=C(COc1ccc(Cl)c(F)c1)NC12CC(N3CC(c4ccc(Cl)c(F)c4)CC3=O)(C1)C2 (stereo not shown) [Compound 159, 2-(4-chloro-3-fluorophenoxy)-N-{3-[4-(4-chloro-3-fluorophenyl)-2-oxopyrrolidin-1-yl]bicyclo[1.1.1]pentan-1-yl}acetamide] | > 7.30
 | O=C(COc1ccc(Cl)c(F)c1)NC12CC(n3ccn(-c4ccc(Cl)cc4)c3=O)(C1)C2 [Compound 160, 2-(4-chloro-3-fluorophenoxy)-N-{3-[3-(4-chlorophenyl)-2-oxo-2,3-dihydro-1H-imidazol-1-yl]bicyclo[1.1.1]pentan-1-yl}acetamide] | > 7.30
 | O=C(COc1ccc(Cl)c(F)c1)NC12CCC(N3CC(c4ccc(Cl)cc4)OC3=O)(CC1)CC2O (stereo not shown) [Compound 162, 2-(4-chloro-3-fluorophenoxy)-N-{4-[5-(4-chlorophenyl)-2-oxo-1,3-oxazolidin-3-yl]-2-hydroxybicyclo[2.2.2]octan-1-yl}acetamide] | 6.60 to 7.30
 | O=C(COc1ccc(Cl)c(F)c1)NC12CCC(N3CC(c4ccc(Cl)c(F)c4)CC3=O)(CC1)C[C@@H]2O (stereo partly drawn) [Compound 163, 2-(4-chloro-3-fluorophenoxy)-N-{(2S)-4-[4-(4-chloro-3-fluorophenyl)-2-oxopyrrolidin-1-yl]-2-hydroxybicyclo[2.2.2]octan-1-yl}acetamide] | > 7.30
 | CC1(c2ccc(Cl)cc2)CN=C(C23CC(NC(=O)COc4ccc(Cl)c(F)c4)(C2)C3)O1 (stereo not shown) [Compound 164, 2-(4-chloro-3-fluorophenoxy)-N-{3-[5-(4-chlorophenyl)-5-methyl-4,5-dihydro-1,3-oxazol-2-yl]bicyclo[1.1.1]pentan-1-yl}acetamide] | 6.00 to 6.60
 | O=C(COc1ccc(Cl)c(F)c1)NC12CC(N3CC(c4ccc(Cl)c(F)c4)=CC3=O)(C1)C2 [Compound 165, 2-(4-chloro-3-fluorophenoxy)-N-{3-[4-(4-chloro-3-fluorophenyl)-2-oxo-2,5-dihydro-1H-pyrrol-1-yl]bicyclo[1.1.1]pentan-1-yl}acetamide] | > 7.30
 | O=C(NC12CC(N3CC(c4ccc(Cl)c(F)c4)OC3=O)(C1)C2)c1cnc(C(F)F)cn1 (stereo not shown) [Compound 166, N-{3-[5-(4-chloro-3-fluorophenyl)-2-oxo-1,3-oxazolidin-3-yl]bicyclo[1.1.1]pentan-1-yl}-5-(difluoromethyl)pyrazine-2-carboxamide] | < 5.70
 | O=C(NC12CC(N3CC(c4ccc(Cl)c(F)c4)OC3=O)(C1)C2)c1cc(C(F)F)no1 (stereo not shown) [Compound 167, N-{3-[5-(4-chloro-3-fluorophenyl)-2-oxo-1,3-oxazolidin-3-yl]bicyclo[1.1.1]pentan-1-yl}-3-(difluoromethyl)-1,2-oxazole-5-carboxamide] | < 5.70
 | O=C(COc1ccc(Cl)c(F)c1)NC12CC(N3Cc4cc5ccccc5cc4C3=O)(C1)C2 [Compound 168, 2-(4-chloro-3-fluorophenoxy)-N-[3-(1-oxo-1,3-dihydro-2H-benzo[f]isoindol-2-yl)bicyclo[1.1.1]pentan-1-yl]acetamide] | 6.00 to 6.60
 | O=C(COc1ccc(Cl)c(F)c1)NC12CC(N3CC(c4ccc(Cl)cc4)COC3=O)(C1)C2 (stereo not shown) [Compound 169, 2-(4-chloro-3-fluorophenoxy)-N-{3-[5-(4-chlorophenyl)-2-oxo-1,3-oxazinan-3-yl]bicyclo[1.1.1]pentan-1-yl}acetamide] | 6.00 to 6.60
